“Also recorded” adds a separate entry of the source.
Tests used:
Format in all cases: cell-based, Candida albicans
[1] = tested on: C. albicans hyphae formation; test: filamentation assay (hyphal morphogenesis); conditions: for inhibition of hyphal formation and induction of RFP: 12.5 μM, Spider media 16 hours, HWP1-RFP reporter
Excerpt: Because the ability to interconvert between yeast and hyphal morphologies is usually correlated with pathogenicity (Finkel, 2010), we explored this observation in more detail. First, we assessed the effect of our compounds on the induction of hyphae by “Spider” media (Chauhan, 2009). For this experiment, we used a strain that contains the hyphal-specific HWP1 promoter to the Red Fluorescent Protein (RFP) open reading frame (Ganguly, 2011), which provides a molecular reporter for hyphae formation that we used in addition to visual examination of cell morphology. We initially tested each of the compounds that inhibit adhesion to polystyrene (FIG. 1B), as well as compounds #9, Q1 and Q2 (FIG. 3A), at concentration of 12.5 μM. […] Compounds Q1 and Q2 share a “Scaffold 1” backbone with compounds #4 and #9, but contain a quinoline group (FIG. 3A). Therefore, the compounds with a quinoline group can inhibit hyphae formation, but not adhesion to polystyrene or human cells (FIG. 3). […] Additionally, multiple chemical backbones are able to inhibit hyphae formation, because compound #12 has a “Scaffold 2” backbone (Table 2). To better discriminate the inhibitory compounds, we tested #4, 12 and Q1 at lower concentrations. […] Furthermore, as in the polystyrene adhesion assay (FIG. 8), compound #4 is effective at inhibiting hyphae formation at concentrations >2.5 μM.
Overnight cultures of SC5314 or SGH584 were pregrown in uridine-supplemented SC media at 30° C. to an OD600>13 and diluted 1:10 into prewarmed Spider medium (1% Peptone (Difco), 1% Mannitol (Sigma) and 0.2% K2HPO4 (Sigma) (Chauhan, 2009) in glass tubes and grown for 16 hrs at 37° C. shaking at 200 rpm in the presence or absence of drugs as indicated. DIC and fluorescence images were acquired using a Zeiss Axiovert 200 inverted microscope equipped with a Qicam 12-bit Fast 1394 digital CCD camera (Qimaging). Image acquisition was carried out using Openlab 5 software (Improvison).
Because the ability to interconvert between yeast and hyphal morphologies is usually correlated with pathogenicity, we explored this in more detail, examining induction of hyphae upon carbon starvation (using Spider media). We used a strain that contains the Red Fluorescent Protein (RFP) open reading frame driven by the hyphal-specific HWP1 promoter (Ganguly et al., Eukaryotic Cell 10:1448, 2011), which provides a molecular reporter for hyphae formation in addition to cell morphology. […] Therefore, the shared backbone of these compounds correlates with inhibition of multiple activities.
Hyphal morphogenesis is induced by multiple stimuli that act via multiple signal transduction pathways and is mediated by a complex transcriptional network. […] We detected morphological difference between control and compound #4-treated cultures as early as 60 minutes in 10% serum, and 90 minutes in Spider media.

[2] = tested on: C. albicans SC5314; test: alamarBlue-based polystyrene adhesion assay; conditions: for C. albicans adhesion to polystyrene: 25 μM
Excerpt: We prioritized the candidate compounds by testing the dose-dependence of their effects. Because of the laborious washing required to remove background crystal violet dye staining, we developed adhesion assays using alternative detection reagents. Previous experiments screens have used the vital dye alamarBlue to measure Candida viability (Lafleur, J. Antimicrob Chemother. 66: 820-826, 2011; Youngsaye supra), so we tested this reagent as a way to measure cells remaining adhered after washing. […] The majority of the reordered compounds were effective at reducing Candida adhesion at 50 μM, the concentration originally tested during the screen. […] Although compounds that were still effective at 25 μM were less generally less so at 7.5 μM (FIG. 1C), many candidates still reduced adhesion by >50% at this lower concentration.
Overnight cultures of SC5314 and edt1^−/− cells were grown and plated onto Immulon 2HB 96-well microtiter plates and treated with small molecules as described above. Following incubations, media was decanted and plates were washed twice with 100 μl/well PBS. alamarBlue (Life Technologies) was resuspended to a final concentration of 5% in RPMI buffered with 0.165 M MOPS and then 100 μl was added to each well, followed by further incubation for 2 hours at 37° C. Fluorescence signals at 555Ex/585Em were read using a SpectraMax M5 Plate reader (Molecular Devices).

[3] = tested on: C. albicans adherence to human lung epithelial A549 cells; test: epithelial cell binding assay; conditions: 25 μM; 37° C., 90 min
Excerpt: In addition to experiments with inert surfaces, we also tested how the candidate compounds would affect C. albicans adherence to human cells, measuring binding of Green Fluorescent Protein (GFP)-encoding C. albicans cells to monolayers of human lung epithelial A549 cells, which are an effective substrate for Candida adhesion (Kitamura, Antimicrob Agents Chemother. 53: 3963-3971, 2009). […] We conclude that compound #4 is not toxic to this human cell line under our assay concentrations, but can impair fungal adhesion both to inert surfaces and to cultured human epithelial cells.
Human lung epithelial A549 cells (Giard, 1973) were grown to confluence on Nunc 48 well plates in RPMI+10% FBS and Penicillin/Streptomycin. Media was decanted and plates were carefully washed 3 times with PBS to remove unbound cells. Pre-grown overnight cultures of SC5314-GFP and edt1^−/−-GFP C. albicans cells were resuspended in fresh SC+0.2% glucose at 0.5 OD/ml and 250 μl of yeast suspension were plated onto to each well. Following incubation at 37° C. for 1.5 hours, media was decanted, and the monolayers were washed carefully 3 times with 250 μl PBS. Fluorescence from bound yeast was measured (485 Ex/535 Em) using the Synergy HT plate reader (BioTek) after addition of 100 μl PBS/well.

SMILES	inhibition of hyphal formation and induction of RFP [1]	C. albicans adhesion to polystyrene [2]	inhibition of C. albicans adhesion to human A549 cells [3]	hyphae formation induced by Spider media ([1]; 10 μM)	earliest morphological difference between control and treated cultures ([1]; 10% serum) [minutes]	hyphal response to Spider media and mammalian serum ([1]; 37° C.)	concentrations effective at inhibiting hyphae formation ([1]; Spider media) [µM]	earliest morphological difference between control and treated cultures ([1]; Spider media) [minutes]	formation of hyphae ([1]; Spider media, HWP1-RFP reporter (Example 14))	time at which effect could be detected after Spider media addition ([1]; protein reporter assay)	synergy on adhesion upon combining compound #4 and compound #12 ([2]; #4 1.5 μM with #12 4 and 6 μM)	effect on adhesion of compound alone ([2]; compound #4 1.5 μM, compound #12 4 and 6 μM)
O=C(c1ccc(Cl)c(Cl)c1)N1CCN(c2ccc([N+](=O)[O-])cc2)CC1 [Compound 9]	most potently inhibited hyphal formation and induction of RFP	effective adhesion inhibitors	not #9 effectively inhibited human cell binding									
Cc1ccc(C(=O)N2CCN(c3ccc([N+](=O)[O-])cc3)CC2)cc1Cl [Compound 4]	most potently inhibited hyphal formation and induction of RFP	effective adhesion inhibitors	by far the strongest inhibitor of adhesion to human epithelial cells; also recorded: strongly inhibited	completely blocked the hyphae formation	60	inhibited the response to both these stimuli	> 2.5	90	blocked formation of hyphae	within two hours	did not further reduce adhesion	partial effects

— US9648880B2, “Antifungal agents and uses thereof” (University of Massachusetts, priority 2012, dated 2017)
